According to PubChem BioAssay (NCI):
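In this assay, cells in 96-well plates receive the compound at five concentrations for 48 hours. Endpoints are linearly interpolated between the surrounding concentrations. TGI marks complete inhibition of growth.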

Assays:
Experiment in all cases: DTP human tumour cell line panel, 48 h
[1] = system: SK-OV-3 ovarian
[2] = system: KM12 colon
[3] = system: ACHN renal
[4] = system: HCT-116 colon
[5] = system: SN12C renal
[6] = system: NCI/ADR-RES ovarian
[7] = system: MALME-3M melanoma
[8] = system: OVCAR-8 ovarian
[9] = system: SK-MEL-28 melanoma
[10] = system: M14 melanoma
[11] = system: OVCAR-4 ovarian
[12] = system: IGROV1 ovarian
[13] = system: HCT-15 colon
[14] = system: MDA-MB-231 breast
[15] = system: SNB-19 CNS
[16] = system: MDA-MB-435
[17] = system: RPMI-8226 leukemia
[18] = system: HS 578T breast
[19] = system: NCI-H226 lung
[20] = system: NCI-H460 lung
[21] = system: HL-60(TB) leukemia
[22] = system: SF-539 CNS
[23] = system: NCI-H23 lung
[24] = system: U251 CNS
[25] = system: MOLT-4 leukemia
[26] = system: SK-MEL-2 melanoma
[27] = system: A549 NSCLC
[28] = system: BT-549 breast
[29] = system: TK-10 renal
[30] = system: UO-31 renal
[31] = system: A498 renal
[32] = system: HOP-62 NSCLC
[33] = system: SK-MEL-5 melanoma
[34] = system: HT29 colon
[35] = system: EKVX NSCLC
[36] = system: K-562 leukemia
[37] = system: UACC-257 melanoma
[38] = system: HCC-2998 colon
[39] = system: SNB-75 CNS
[40] = system: PC-3 prostate
[41] = system: OVCAR-5 ovarian
[42] = system: MDA-N
[43] = system: SW-620 colon
[44] = system: CAKI-1 renal
[45] = system: MCF7 breast
[46] = system: NCI-H522 lung
[47] = system: DU-145 prostate
[48] = system: RXF 393 renal
[49] = system: UACC-62 melanoma
[50] = system: HOP-92 NSCLC
[51] = system: SF-295 CNS
[52] = system: LOX IMVI melanoma
[53] = system: COLO 205 colon
[54] = system: OVCAR-3 ovarian
[55] = system: SF-268 CNS
[56] = system: 786-0 renal
[57] = system: T-47D breast
[58] = system: SR leukemia
[59] = system: CCRF-CEM leukemia

CCOc1ccc2nc3cc(N=Nc4ccc(N)nc4N)ccc3c(N)c2c1
TGI [1]: > 30.3 µM | TGI [2]: > 100 µM | TGI [3]: 33.9 µM | TGI [4]: 7.8 µM | TGI [5]: 6.38 µM | TGI [6]: > 100 µM | TGI [7]: 21 µM | TGI [8]: 34.3 µM | TGI [9]: 47.2 µM | TGI [10]: 51.5 µM | TGI [11]: > 78.6 µM | TGI [12]: > 69.6 µM | TGI [13]: > 100 µM | TGI [14]: 2.92 µM | TGI [15]: 3.08 µM | TGI [16]: > 100 µM | TGI [17]: 61.6 µM | TGI [18]: 15.2 µM | TGI [19]: 59.4 µM | TGI [20]: 57.6 µM | TGI [21]: 10.1 µM | TGI [22]: 4.11 µM | TGI [23]: 21.9 µM | TGI [24]: 1.93 µM | TGI [25]: 4.83 µM | TGI [26]: 4.66 µM | TGI [27]: > 47.9 µM | TGI [28]: 31.4 µM | TGI [29]: 28.6 µM | TGI [30]: > 66.3 µM | TGI [31]: 28.1 µM | TGI [32]: > 100 µM | TGI [33]: 55.2 µM | TGI [34]: 14 µM | TGI [35]: 45.3 µM | TGI [36]: 1.67 µM | TGI [37]: 57.1 µM | TGI [38]: 4.35 µM | TGI [39]: 5.11 µM | TGI [40]: 13.5 µM | TGI [41]: 41.7 µM | TGI [42]: 4.99 µM | TGI [43]: > 34.9 µM | TGI [44]: > 100 µM | TGI [45]: 12.2 µM | TGI [46]: 8.71 µM | TGI [47]: 26.8 µM | TGI [48]: 10 µM | TGI [49]: 33.7 µM | TGI [50]: 40.1 µM | TGI [51]: 63.4 µM

OC1(c2ccccc2)CCCCCCCCC(O)(c2ccccc2)CCCCCCCC1 (centres undefined)
TGI [1]: > 100 µM | TGI [2]: > 100 µM | TGI [3]: > 100 µM | TGI [52]: > 100 µM | TGI [4]: > 100 µM | TGI [53]: > 100 µM | TGI [5]: > 100 µM | TGI [6]: > 100 µM | TGI [7]: > 100 µM | TGI [8]: > 100 µM | TGI [9]: > 100 µM | TGI [10]: > 100 µM | TGI [11]: > 100 µM | TGI [12]: > 100 µM | TGI [54]: > 100 µM | TGI [13]: > 100 µM | TGI [55]: > 100 µM | TGI [15]: > 100 µM | TGI [16]: > 100 µM | TGI [20]: > 100 µM | TGI [21]: > 100 µM | TGI [22]: > 100 µM | TGI [23]: > 100 µM | TGI [24]: > 100 µM | TGI [26]: > 100 µM | TGI [27]: > 100 µM | TGI [56]: > 100 µM | TGI [29]: > 100 µM | TGI [57]: > 100 µM | TGI [30]: > 100 µM | TGI [31]: > 100 µM | TGI [32]: > 100 µM | TGI [33]: > 100 µM | TGI [34]: > 100 µM | TGI [35]: > 100 µM | TGI [36]: > 100 µM | TGI [37]: > 100 µM | TGI [38]: > 100 µM | TGI [39]: > 100 µM | TGI [40]: > 100 µM | TGI [41]: > 100 µM | TGI [42]: > 100 µM | TGI [43]: > 100 µM | TGI [44]: > 100 µM | TGI [58]: > 100 µM | TGI [45]: > 100 µM | TGI [46]: > 100 µM | TGI [47]: > 100 µM | TGI [48]: > 100 µM | TGI [49]: > 100 µM | TGI [50]: > 100 µM | TGI [51]: > 100 µM

CC(=O)OCC1OC(N2C(=S)N[C@H]([C@@H](O)[C@H](O)[C@H](O)CO)[C@H]2O)C(OC(C)=O)C(OC(C)=O)C1OC(C)=O (some centres undefined)
TGI [59]: > 100 µM | TGI [1]: > 100 µM | TGI [2]: > 100 µM | TGI [3]: > 100 µM | TGI [4]: > 100 µM | TGI [53]: > 100 µM | TGI [5]: > 100 µM | TGI [6]: > 100 µM | TGI [8]: > 100 µM | TGI [9]: > 100 µM | TGI [10]: > 100 µM | TGI [11]: > 100 µM | TGI [12]: > 100 µM | TGI [54]: > 100 µM | TGI [13]: > 100 µM | TGI [55]: > 100 µM | TGI [14]: > 100 µM | TGI [15]: > 100 µM | TGI [16]: > 100 µM | TGI [17]: > 100 µM | TGI [18]: > 100 µM | TGI [20]: > 100 µM | TGI [22]: > 100 µM | TGI [23]: > 100 µM | TGI [24]: > 100 µM | TGI [25]: > 100 µM | TGI [26]: > 100 µM | TGI [27]: > 100 µM | TGI [28]: > 100 µM | TGI [56]: > 100 µM | TGI [30]: > 100 µM | TGI [32]: > 100 µM | TGI [33]: > 100 µM | TGI [34]: > 100 µM | TGI [35]: > 100 µM | TGI [36]: > 100 µM | TGI [37]: > 100 µM | TGI [38]: > 100 µM | TGI [40]: > 100 µM | TGI [41]: > 100 µM | TGI [42]: > 100 µM | TGI [43]: > 100 µM | TGI [44]: > 100 µM | TGI [58]: > 100 µM | TGI [45]: > 100 µM | TGI [46]: > 100 µM | TGI [47]: > 100 µM | TGI [48]: > 100 µM | TGI [49]: > 100 µM | TGI [50]: > 100 µM | TGI [51]: > 100 µM

C/C=C\C(CC(=O)O)CN1CCC2=C(C1)C(S(=O)(=O)C(F)(F)F)c1ccccc12 (centres undefined)
TGI [1]: > 100 µM | TGI [2]: > 100 µM | TGI [3]: > 100 µM | TGI [4]: > 100 µM | TGI [53]: > 100 µM | TGI [6]: > 100 µM | TGI [7]: > 100 µM | TGI [8]: > 100 µM | TGI [9]: > 100 µM | TGI [10]: > 100 µM | TGI [11]: > 100 µM | TGI [12]: > 100 µM | TGI [54]: > 100 µM | TGI [13]: > 100 µM | TGI [55]: > 100 µM | TGI [14]: > 100 µM | TGI [15]: > 100 µM | TGI [16]: > 100 µM | TGI [17]: > 100 µM | TGI [18]: > 100 µM | TGI [20]: > 100 µM | TGI [23]: > 100 µM | TGI [24]: > 100 µM | TGI [25]: > 100 µM | TGI [26]: > 100 µM | TGI [27]: > 100 µM | TGI [28]: > 100 µM | TGI [56]: > 100 µM | TGI [30]: > 100 µM | TGI [31]: > 100 µM | TGI [32]: > 100 µM | TGI [33]: > 100 µM | TGI [34]: > 100 µM | TGI [35]: > 100 µM | TGI [36]: > 100 µM | TGI [37]: > 100 µM | TGI [38]: > 100 µM | TGI [39]: > 100 µM | TGI [40]: > 100 µM | TGI [41]: > 100 µM | TGI [42]: > 100 µM | TGI [43]: > 100 µM | TGI [44]: > 100 µM | TGI [58]: > 100 µM | TGI [45]: > 100 µM | TGI [46]: > 100 µM | TGI [47]: > 100 µM | TGI [48]: > 100 µM | TGI [49]: > 100 µM | TGI [50]: > 100 µM | TGI [51]: > 100 µM

CC(=O)Nc1ccc(NNc2cc(=O)n(C)c(=O)[nH]2)cc1
TGI [2]: 24.4 µM | TGI [3]: 11.4 µM | TGI [52]: 5.72 µM | TGI [4]: 19.3 µM | TGI [53]: 24 µM | TGI [5]: 23.9 µM | TGI [6]: 43.8 µM | TGI [7]: 25.2 µM | TGI [8]: 45.1 µM | TGI [9]: 24.2 µM | TGI [10]: 21.8 µM | TGI [11]: 21.9 µM | TGI [12]: 27 µM | TGI [54]: 6.52 µM | TGI [13]: 20.6 µM | TGI [14]: 24.8 µM | TGI [15]: 31.6 µM | TGI [16]: 22.3 µM | TGI [17]: 9.69 µM | TGI [18]: 53 µM | TGI [19]: 46 µM | TGI [20]: 45.2 µM | TGI [21]: 6.98 µM | TGI [22]: 30.2 µM | TGI [23]: 31.1 µM | TGI [24]: 24 µM | TGI [25]: > 100 µM | TGI [27]: 34.7 µM | TGI [28]: 25.7 µM | TGI [56]: 7.63 µM | TGI [29]: 39 µM | TGI [30]: 31 µM | TGI [31]: 49.1 µM | TGI [32]: 30.4 µM | TGI [33]: 31.2 µM | TGI [34]: 4.71 µM | TGI [35]: 31.5 µM | TGI [36]: > 100 µM | TGI [37]: 26.8 µM | TGI [38]: 24 µM | TGI [40]: 12.3 µM | TGI [41]: 27.1 µM | TGI [42]: 23.7 µM | TGI [43]: 7.56 µM | TGI [58]: > 100 µM | TGI [45]: 19.5 µM | TGI [47]: 29.5 µM | TGI [50]: 9.64 µM | TGI [51]: 29.3 µM
